Data as given in US8598223B2, “Crystalline forms of 4, 4′-[4-fluoro-7-({4-[4-(3-fluoro-2-methylphenyl) butoxy] phenyl} ethynyl)-2-methyl-1H-indole-1,3-diyl] dibutanoic acid, 4,4′-[2-methyl-7-({4-[4-(pentafluorophenyl) butoxy] phenyl} ethynyl)-1H-indole-1, 3-diyl] dibutanoic acid, and 4,4′-[4-fluoro-2-methyl-7-({4-[4-(2, 3, 4, …” (Ono Pharmaceutical Co., Ltd., priority 2010, dated 2013).
Like-named read-outs stand apart in the source and are kept apart here.

Experiments:
[1] = system: LTD4-induced bronchoconstriction in guinea pigs; assay: LTD4-induced bronchoconstriction in guinea pigs (Konzett-Rossler method); type: in vivo, guinea pig; settings: oral, 1 mg/kg
Description: Guinea pigs were anesthetized by injection of pentobarbital sodium (75 mg/kg, i.p.), and a polyethylene cannula was inserted into the trachea which had been incised. For the purpose of administration of LTD4, a catheter was inserted into the jugular vein of the animal. One side of the cannula inserted into the trachea was connected with a volume-controlled respirator to perform artificial respiration at a ventilation volume of 5 mL and at a ventilation rate of 70 times/min. LTD4 was administrated intravenously to induce the bronchoconstriction, and the airway resistance was measured using the Konzett-Rossler method. The bronchoconstriction response was measured for 10 minutes after LTD4-challenge, and the ratio of bronchoconstriction response was determined and represented as a percentage of the maximal increase in insufflation pressure achieved by clamping off the trachea. In this connection, the crystalline forms of the present invention were orally administered 1, 2, 4, 8, 12, 18, 24, 36 and 48 hours prior to challenge by LTD4.

[2] = Thermodynamical stability test by differential scanning calorimetry (DSC); type: physicochemical
Description: The thermodynamical stability of each crystalline form of compound I, compound II, and compound III was analyzed by differential scanning calorimetry (DSC). As a result, it was apparent that the crystalline forms of the present invention are ones which have improved thermodynamical stability.

[3] = Photostability test (D65 lamp); type: physicochemical; settings: not less than 1.2 million lux hours and 200 W·h/m^2, 25° C.±2° C., visual check
Description: Each crystalline form of compound I, compound II, and compound III were weighed about 5 mg, and were exposed to light from D65 lamp providing an overall illumination of not less than 1.2 million lux hours and an integrated near ultraviolet energy of not less than 200 W·h/m^2 under 25° C.±2° C.

[4] = administered 2 hours prior to LTD4 challenge
[5] = administered 24 hours prior to LTD4 challenge

For `Cc1c(F)cccc1CCCCOc1ccc(/C=C/c2ccc(F)c3c(CCCC(=O)O)c(C)n(CCCC(=O)O)c23)cc1` [Comparative Example 4, 4,4′-{4-fluoro-7-[(E)-2-{4-[4-(3-fluoro-2-methylphenyl)butoxy]phenyl}vinyl]-2-methyl-1H-indole-1,3-diyl}dibutanoic acid], the bronchoconstriction inhibition ratio [1, 4] was 97.5% and the bronchoconstriction inhibition ratio [1, 5] was 43.2%.

`Cc1c(CCCC(=O)O)c2cccc(/C=C/c3ccc(OCCCCc4c(F)c(F)c(F)c(F)c4F)cc3)c2n1CCCC(=O)O` [Comparative Example 5, 4,4′-{2-methyl-7-[(E)-2-{4-[4-(pentafluorophenyl)butoxy]phenyl}vinyl]-1H-indole-1,3-diyl}dibutanoic acid] showed a bronchoconstriction inhibition ratio [1, 4] of 98.6% and a bronchoconstriction inhibition ratio [1, 5] of 74.1%.

Molecule `Cc1c(CCCC(=O)O)c2c(F)ccc(/C=C/c3ccc(OCCCCc4c(F)cc(F)c(F)c4F)cc3)c2n1CCCC(=O)O` [Comparative Example 6, 4,4′-{4-fluoro-2-methyl-7-[(E)-2-{4-[4-(2,3,4,6-tetrafluorophenyl)butoxy]phenyl}vinyl]-1H-indole-1,3-diyl}dibutanoic acid] has a bronchoconstriction inhibition ratio [1, 4] of 53.2% and a bronchoconstriction inhibition ratio [1, 5] of 16.1%.

With `Cc1c(F)cccc1CCCCOc1ccc(C#Cc2ccc(F)c3c(CCCC(=O)O)c(C)n(CCCC(=O)O)c23)cc1` [Example 12, 4,4′-[4-fluoro-7-({4-[4-(3-fluoro-2-methylphenyl)butoxy]phenyl}ethynyl)-2-methyl-1H-indole-1,3-diyl]dibutanoic acid] the “thermodynamical stability of the crystalline form” value (from here on “thermodynamical stability”) [2] was “the most thermodynamically stable crystalline form”, the fusion enthalpy ([2]; listed as type C crystal of compound I) was 105.6 J/g and the “photostability of the crystalline form” value [3] was “photostable”.

With `Cc1c(CCCC(=O)O)c2cccc(C#Cc3ccc(OCCCCc4c(F)c(F)c(F)c(F)c4F)cc3)c2n1CCCC(=O)O` [Example 14, 4,4′-[2-methyl-7-({4-[4-(pentafluorophenyl)butoxy]phenyl}ethynyl)-1H-indole-1,3-diyl]dibutanoic acid] the bronchoconstriction inhibition ratio [1, 4] was 98.5%, the bronchoconstriction inhibition ratio [1, 5] was 99.2% and the “thermodynamical stability” value [2] was “thermodynamically stable”. The “photostability of the crystalline form” value [3] was “more photostable than type A crystal”.

For `Cc1c(CCCC(=O)O)c2c(F)ccc(C#Cc3ccc(OCCCCc4c(F)cc(F)c(F)c4F)cc3)c2n1CCCC(=O)O` [Example 16, 4,4′-[4-fluoro-2-methyl-7-({4-[4-(2,3,4,6-tetrafluorophenyl)butoxy]phenyl}ethynyl)-1H-indole-1,3-diyl]dibutanoic acid], the “thermodynamical stability” value [2] was “thermodynamically stable” and the “photostability of the crystalline form” value [3] was “photostable”.

Work on `Cc1c(F)cccc1CCCCOc1ccc(C#Cc2ccc(F)c3c(CCCC(=O)O)c(C)n(CCCC(=O)O)c23)cc1` [type A crystal of compound I, 4,4′-[4-fluoro-7-({4-[4-(3-fluoro-2-methylphenyl)butoxy]phenyl}ethynyl)-2-methyl-1H-indole-1,3-diyl]dibutanoic acid] yielded a fusion enthalpy [2] of 96.3 J/g.

In the case of `Cc1c(CCCC(=O)O)c2cccc(C#Cc3ccc(OCCCCc4c(F)c(F)c(F)c(F)c4F)cc3)c2n1CCCC(=O)O` [type A crystal of compound II, 4,4′-[2-methyl-7-({4-[4-(pentafluorophenyl)butoxy]phenyl}ethynyl)-1H-indole-1,3-diyl]dibutanoic acid], the “degree of change in color to yellow after test as compared to before test” value ([3]; type A versus type B crystal) is reported as “bigger”.

Work on `Cc1c(F)cccc1CCCCOc1ccc(C#Cc2ccc(F)c3c(CCCC(=O)O)c(C)n(CCCC(=O)O)c23)cc1` [type B crystal of compound I, 4,4′-[4-fluoro-7-({4-[4-(3-fluoro-2-methylphenyl)butoxy]phenyl}ethynyl)-2-methyl-1H-indole-1,3-diyl]dibutanoic acid] yielded a fusion enthalpy [2] of 57.2 J/g.
